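Each compound was tested at five concentrations against cells in 96-well plates for 48 hours. Definition used: TGI = concentration required for complete inhibition of growth.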 Some results are limits rather than exact numbers.

Test systems include CAKI-1 renal; COLO 205 colon; HCT-15 colon; IGROV1 ovarian; KM12 colon; MALME-3M melanoma; MCF7 breast; MDA-MB-231 breast; MOLT-4 leukemia; NCI-H226 lung; NCI-H23 lung; NCI/ADR-RES ovarian; OVCAR-4 ovarian; RPMI-8226 leukemia; RXF 393 renal; SK-MEL-28 melanoma; SK-OV-3 ovarian; A498 renal.
Common to all, as to assay: DTP human tumour cell line panel, 48 h

For `Clc1ccc(Cc2nc3ccccc3o2)cc1`, the total growth inhibition concentration (TGI) in the assay on CAKI-1 renal, in the assay with COLO 205 colon, with HCT-15 colon, in the assay with IGROV1 ovarian, in the assay with KM12 colon and in the assay on MALME-3M melanoma was above 100 µM each time. Besides, the total growth inhibition concentration (TGI) in the assay with MCF7 breast, with MDA-MB-231 breast, with MOLT-4 leukemia, in the assay on NCI-H226 lung, in the assay on NCI-H23 lung and in the assay on NCI/ADR-RES ovarian was above 100 µM in each case. In addition, the TGI (in general, the concentration giving total growth inhibition) in the assay on OVCAR-4 ovarian is above 100 µM; in the assay with RPMI-8226 leukemia it was above 100 µM; in the assay with RXF 393 renal, 97.8 µM; with SK-MEL-28 melanoma, above 100 µM; with SK-OV-3 ovarian, above 100 µM.

For `CC(NCc1c(O)ccc2c(-c3ccccc3)cc(=O)oc12)C(=O)O` (stereo unspecified), the TGI in the assay with CAKI-1 renal, with COLO 205 colon, with HCT-15 colon, in the assay with IGROV1 ovarian, in the assay with KM12 colon and in the assay with MALME-3M melanoma was above 100 µM each time. The TGI in the assay with MCF7 breast, in the assay on MDA-MB-231 breast, in the assay on MOLT-4 leukemia, in the assay on NCI-H226 lung, in the assay with NCI-H23 lung and in the assay on NCI/ADR-RES ovarian was above 100 µM in each case. Besides, the TGI in the assay with OVCAR-4 ovarian, with RPMI-8226 leukemia, with RXF 393 renal, in the assay on SK-MEL-28 melanoma and in the assay on SK-OV-3 ovarian was above 100 µM throughout.

Regarding `O=C1c2ccccc2C(=O)N1/N=C1/SC(=Nc2ccccc2)C(=Nc2ccccc2)N1c1ccccc1`, the TGI was above 63.1 µM with A498 renal; above 100 µM in the assay on CAKI-1 renal; above 100 µM with COLO 205 colon; above 100 µM with HCT-15 colon; above 100 µM in the assay on IGROV1 ovarian; above 100 µM with KM12 colon. Further, the TGI was above 84.7 µM in the assay on MALME-3M melanoma; above 100 µM in the assay on MCF7 breast; above 100 µM in the assay with MOLT-4 leukemia; above 100 µM with NCI-H226 lung; above 88.6 µM with NCI-H23 lung; above 100 µM with NCI/ADR-RES ovarian. Further, the TGI with OVCAR-4 ovarian was above 100 µM; in the assay with RPMI-8226 leukemia, above 79.1 µM; in the assay on RXF 393 renal, 14.3 µM; in the assay with SK-MEL-28 melanoma, above 69 µM.

As to `O=C(CNc1ccccc1[N+](=O)[O-])Nn1cnc2ccc(S(=O)(=O)Nc3ccccc3[N+](=O)[O-])cc2c1=O`, the TGI in the assay with CAKI-1 renal, in the assay on COLO 205 colon, in the assay with HCT-15 colon, in the assay with IGROV1 ovarian, in the assay on KM12 colon and in the assay on MALME-3M melanoma was above 100 µM each time. Besides, the TGI in the assay on MCF7 breast, in the assay with MDA-MB-231 breast, in the assay on MOLT-4 leukemia, in the assay on NCI-H226 lung, with NCI-H23 lung and in the assay on NCI/ADR-RES ovarian was above 100 µM in each case. Moreover, the TGI with OVCAR-4 ovarian, in the assay on RPMI-8226 leukemia, with SK-MEL-28 melanoma and in the assay with SK-OV-3 ovarian was above 100 µM in each case.

Regarding `C=CC(=O)NCCC(=O)OCn1cc(F)c(=O)[nH]c1=O`, the TGI in the assay on A498 renal, with CAKI-1 renal, in the assay on COLO 205 colon, in the assay on HCT-15 colon, in the assay on IGROV1 ovarian and in the assay on KM12 colon was above 100 µM each time. The TGI in the assay with MALME-3M melanoma, in the assay with MCF7 breast, in the assay with MOLT-4 leukemia, in the assay on NCI-H226 lung, with NCI-H23 lung and in the assay with NCI/ADR-RES ovarian was above 100 µM throughout. Further, the concentration for total growth inhibition (TGI) with OVCAR-4 ovarian was 40.3 µM; in the assay on RPMI-8226 leukemia it was above 100 µM; in the assay on RXF 393 renal it was 94.6 µM; in the assay on SK-MEL-28 melanoma, above 100 µM; with SK-OV-3 ovarian it was above 100 µM.

Turning to `O=C(c1ccc2ccccc2c1)C1(I)S(=O)(=O)OCCOS1(=O)=O`, the TGI in the assay with CAKI-1 renal, in the assay on COLO 205 colon, with HCT-15 colon, with KM12 colon, in the assay with MALME-3M melanoma and in the assay on MCF7 breast was above 100 µM in each case. Also, the TGI in the assay on MDA-MB-231 breast, with MOLT-4 leukemia, in the assay with NCI-H23 lung, in the assay on NCI/ADR-RES ovarian, with OVCAR-4 ovarian and in the assay on RPMI-8226 leukemia was above 100 µM in each case. The same molecule showed a TGI in the assay on SK-MEL-28 melanoma above 100 µM.

As to `Cc1cn2cc(-c3cccs3)nc2s1`, the TGI in the assay on A498 renal, with CAKI-1 renal, in the assay with COLO 205 colon, in the assay on HCT-15 colon, in the assay with IGROV1 ovarian and in the assay with KM12 colon was above 100 µM in each case. Besides, the TGI in the assay with MALME-3M melanoma, with MCF7 breast, in the assay with MDA-MB-231 breast, with MOLT-4 leukemia, with NCI-H226 lung and in the assay with NCI-H23 lung was above 100 µM each time. For the same molecule, the TGI with OVCAR-4 ovarian, in the assay on RPMI-8226 leukemia, in the assay with RXF 393 renal, with SK-MEL-28 melanoma and in the assay on SK-OV-3 ovarian was above 100 µM each time.

Take `CCC(C)N1CN(c2ccccc2)C2(CCN(CC3COc4ccccc4O3)CC2)C1=O` (stereo unspecified): the concentration for total growth inhibition (TGI) in the assay with CAKI-1 renal was 38.4 µM; with COLO 205 colon, 47.7 µM; with HCT-15 colon it was 61.1 µM; with IGROV1 ovarian, above 100 µM; in the assay on KM12 colon it was 43.9 µM; in the assay with MALME-3M melanoma, 34.6 µM. The TGI is 49.6 µM with MCF7 breast; above 100 µM in the assay with MDA-MB-231 breast; 66.4 µM with MOLT-4 leukemia; 52.3 µM with NCI-H226 lung; 73.1 µM in the assay on NCI-H23 lung; 44.1 µM in the assay on NCI/ADR-RES ovarian. Further, the TGI in the assay on RPMI-8226 leukemia was 47.2 µM; in the assay on RXF 393 renal it was 38.1 µM; in the assay with SK-MEL-28 melanoma, above 100 µM; in the assay with SK-OV-3 ovarian it was above 100 µM.

Take `Brc1ccc(C2=NCSC(c3ccc(Br)cc3)=N2)cc1`: the TGI in the assay with CAKI-1 renal, with COLO 205 colon, in the assay with HCT-15 colon, with IGROV1 ovarian, in the assay on KM12 colon and in the assay with MALME-3M melanoma was above 100 µM throughout. Further, the TGI was above 100 µM in the assay on MCF7 breast; above 100 µM in the assay on MDA-MB-231 breast; 48.6 µM with MOLT-4 leukemia; above 100 µM in the assay on NCI-H226 lung; above 100 µM in the assay with NCI-H23 lung; above 100 µM in the assay with NCI/ADR-RES ovarian. Moreover, the TGI in the assay on OVCAR-4 ovarian was above 100 µM; in the assay on RPMI-8226 leukemia, 63.5 µM; in the assay with RXF 393 renal, 44.3 µM; with SK-MEL-28 melanoma, above 100 µM; in the assay with SK-OV-3 ovarian it was above 100 µM.

The values are drawn from PubChem BioAssay (NCI).
